“Also recorded” adds a separate entry of the source.
Experiments:
Assay type in all cases: binding
[1] = test system: human monoclonal antibody CRJA
[2] = test system: human monoclonal antibody CR57
[3] = test system: human monoclonal antibody CR57; remark: listed apart in the source
[4] = test system: human monoclonal antibody CRJB
[5] = test system: human monoclonal antibody CRJB; remark: listed apart in the source
[6] = test system: human monoclonal antibody CRJA; remark: listed apart in the source

Row | Sequence | Binding of CRJA to looped/cyclic peptide (PEPSCAN-ELISA signal) [1] | Binding of human monoclonal antibody CR57 to linear peptide (PEPSCAN-ELISA signal) [2] | Binding of CR57 to looped/cyclic peptide (PEPSCAN-ELISA signal) [3] | Binding of human monoclonal antibody CRJB to linear peptide (PEPSCAN-ELISA signal) [4] | Binding of CRJB to looped/cyclic peptide (PEPSCAN-ELISA signal) [5] | Binding of human monoclonal antibody CRJA to linear peptide (PEPSCAN-ELISA signal) [6] | Binding of CRJA (10 μg/ml) to looped/cyclic peptide (PEPSCAN-ELISA signal) [1] | Binding of CR57 to linear peptide (PEPSCAN-ELISA signal) [2] | Binding of CR57 (10 μg/ml) to looped/cyclic peptide (PEPSCAN-ELISA signal) [3] | Binding of CRJB to linear peptide (PEPSCAN-ELISA signal) [4] | Binding of CRJB (10 μg/ml) to looped/cyclic peptide (PEPSCAN-ELISA signal) [5] | binding of antibody CRJB to looped/cyclic peptide (PEPSCAN OD) [5] | Binding of CRJA to linear peptide (PEPSCAN-ELISA signal) [6] | Binding of CRJA (10 μg/ml) to looped/cyclic peptide (PEPSCAN-ELISA) [1] | Binding of CR57 (10 μg/ml) to looped/cyclic peptide (PEPSCAN-ELISA) [3] | Binding of CRJB (10 μg/ml) to looped/cyclic peptide (PEPSCAN-ELISA) [5]
1 | VHNQVSGVDLGLPNW | 106 | 100 | 125 | 119 | 106 | 120 |  |  |  |  |  |  |  |  |  | 
2 | NHDYTIWMPENPRLG |  |  |  |  |  |  | 123 | 71 | 170 | 119 | 186 | display reactivity; also recorded: clearly bound | 108 |  |  | 
3 | RLGMSCDIFTNSRGK |  |  |  |  |  |  | 110 | 88 | 105 | 106 | 104 |  | 92 |  |  | 
4 | CPPDQLVNLHDFRSD |  |  |  |  |  |  |  | 93 |  | 137 |  |  | 115 | 92 | 137 | 123
5 | IEHLVVEELVRKREE |  |  |  |  |  |  |  | 90 |  | 129 |  |  | 100 | 112 | 103 | 112
6 | ELVRKREECLDALES |  |  |  |  |  |  |  | 82 |  | 113 |  |  | 97 | 98 | 93 | 71
7 | TKSVSFRRLSHLRKL |  |  |  |  |  |  |  | 83 |  | 125 |  |  | 103 | 91 | 88 | 94
8 | QSSLLQQHMELLESS |  |  |  |  |  |  |  | 82 |  | 114 |  |  | 98 | 99 | 97 | 85
9 | GVVTEAENYTNFVGY |  |  |  |  |  |  | 90 | 86 | 83 | 111 | 71 |  | 76 |  |  | 
10 | TTKESLVIISPSVAD |  |  |  |  |  |  | 108 | 78 | 114 | 121 | 71 |  | 91 |  |  | 
11 | STVFKDGDEAEDFVE | 100 | 104 | 106 | 120 | 93 | 93 |  |  |  |  |  |  |  |  |  | 
12 | DIFTNSRGKRASKGS |  |  |  |  |  |  | 99 | 70 | 80 | 107 | 82 |  | 114 |  |  | 
